{
  "source": "patent US20110195910A1",
  "about": "“USE OF TOCOTRIENOL COMPOSITION FOR THE PREVENTION OF CANCER” (DAVOS LIFE SCIENCE PTE. LTD., priority 2008, published 2011)",
  "key": {"[1]": {"tested_on": "PCa tumors (PC-3-Luc xenograft)", "experiment": "Immunohistochemistry of xenograft tumor tissues", "set-up": "species or system BALB/c athymic nude mice", "conditions": "mouse, in vivo", "experimental": "4.1.9 Immunohistochemistry—Tumor, liver, kidney, spleen, lung and heart of mice were fixed in 10% neutral buffered formalin for 12 h. After fixation, the tissue samples were processed into paraffin blocks. Tissue sections were cut at a thickness of 5 using Kedee microtome (China JINHUA Kedi Co., Ltd, Zhejiang, China), then deparaffinized in toluene and rehydrated from graded of alcohols to distilled water. Endogenous peroxidase activity was blocked by treating the sections with 0.6% hydrogen peroxide in methanol for 20 min, followed by antigen retrieval treatment. (Dako, Glostrup, Denmark). The sections were then incubated with peroxidase blocking solution (Dako, Glostrup, Denmark) for 1 h at 37° C. to remove any nonspecific antigens. The specimens were incubated overnight at 4° C. with primary rabbit polyclonal antibody against Snail (1:200), Id1 (1:250) (Abcam, Cambridge, UK), cleaved caspase-3 and cleaved PARP (1:50; Cell Signalling Technology, Inc., Beverly, Mass., USA) and mouse monoclonal antibody against proliferating cell nuclear antigen (PCNA), Ki-67, E-cadherin (1:50; Santa Cruz Biotechnology, Santa Cruz, Calif., USA). After several rinse in TBS, the sections were incubated with Dako REALT EnVisionT/HRP, Rabbit/Mouse solution for 1 h at 37° C. The reaction was visualized by Dako REALT DAB^+ chromogen. Mayer's haematoxylin (Dako, Glostrup, Denmark) was used as counter stain. Standard inverted light microscopy (Nikon, Tokyo, Japan) was used to analyze the slides."}, "PC-3 cells": {"tested_on": "PC-3 cells", "experiment": "CSC marker and signalling expression in PC-3 cells (western blotting, flow cytometry, RT-PCR)", "type": "cell-based", "experimental": "5.1.5 Western blotting was carried out as described above under 1.1.5. The membrane was incubated with primary antibodies directed against CD133 (Miltenyi Biotec, Auburn, Calif.), Bcl-2, PARP, cleaved caspase 3, 7, 9 (Cell Signaling, Technology Inc, Beverly, Mass.), CD44 and β-actin (Santa Cruz Biotechnology, Santa Cruz, Calif.). After washing with TBS-T, the membrane was incubated with secondary antibody against either mouse or rabbit IgG and the signals were visualized using ECL plus western blotting system (Amersham, Piscataway, N.J.).\n5.1.6 Semi-quantitative RT-PCR—Total RNA was isolated using TRIZOL® reagent (Invitrogen, Carlsbad, Calif.) following the manufacturer's instruction. cDNA was synthesized by using SuperScript First-Strand Synthesis System for RT (Invitrogen, Carlsbad, Calif.) and PCR was carried out with GeneAmp® PCR System 9700 (Applied Biosystems, Foster City, Calif.). The primers sequence and PCR condition for RT-PCR of CD133 were previously described. The amounts of mRNA were quantified relative to GAPDH.\n5.1.8 Flow cytometry—Flow cytometry analysis of the CD44 positive cells were performed with procedure known in the art. Briefly, cells were incubated in PBS containing 2% FBS with PE-conjugated anti-human CD44 antibody. Isotype-matched mouse immunoglobulins served as controls. Samples were then analyzed using a FACS Calibur flow cytometer and CellQuest software (BD Biosciences, San Jose, Calif., USA)."}, "DU145 prostaspheres": {"tested_on": "DU145 prostaspheres", "experiment": "Treatment of pre-formed CSC-enriched DU145 prostaspheres", "type": "cell-based", "conditions": "48 hrs", "experimental": "(A) CSC enriched prostaspheres were formed by maintaining DU145 cells in non-adherent culture supplemented with serum replacement medium for 14 days. The prostaspheres were then treated with either vehicle, γ-T3 (10, 20 μg/ml) or Docetaxel (Doc, 40 ng/ml) for 48 hrs. Spheroids were counted under microscope before and after treatment. Results were presented as mean % change in spheroid number to control±s.d. Note that spheroids were highly sensitive to γ-T3 treatment but resistant to high dose of Docetaxel. (B) Images of prostaspheres after 48 hrs treatment with vehicle, 40 ng/ml of Docetaxel and 10 μg/ml of γ-T3.\n5.1.7 Spheroid formation assay—Spheroid formation assay was performed with a protocol modified from previous study (Folkins C, p3560). Briefly, cells were first trypsinized, washed with 1× PBS and resuspended in DMEM F12 medium. Two hundred cells were added into each well of a 24-well-plate pre-coated with polyHEMA (Sigma, St. Louis, Mo.). Cells will be grown in DMEM/F12 mem (Invitrogen, Carlsbad, Calif.) supplemented with 4 μg/mL insulin (Sigma, St. Louis, Mo.), B27 (Invitrogen, Carlsbad, Calif.), 20 ng/mL EGF (Sigma, St. Louis, Mo.), and 20 ng/mL basic FGF (Invitrogen, Carlsbad, Calif.). Fresh medium with the above supplements was added every day. γ-T3 was added at indicated time points and the number of spheroids was counted at day 14 of the assay or at the end of the treatment. Each experiment was repeated in triplicates and each data point represented the mean and standard derivation."}},
  "data": [
    {"compound": "CC(C)=CCC/C(C)=C/CC/C(C)=C/CCC1(C)CCc2cc(O)c(C)c(C)c2O1", "note": "(centres unmarked) [γ-T3, 7,8-dimethyltocotrienol]", "values": [
      {"measurement": "E-cadherin expression in tumor sections", "setting": "[1]", "result": "up-regulated"},
      {"measurement": "Snail expression in tumor sections", "setting": "[1]", "result": "down-regulated"},
      {"measurement": "level of PCNA, Ki67 and Id-1 in tumors", "setting": "[1]", "result": "downregulated"},
      {"measurement": "level of cleaved caspase 3 and PARP in tumors", "setting": "[1]", "result": "induced"},
      {"measurement": "population of CD44+ PC-3 cells (flow cytometry)", "setting": "PC-3 cells; 5 μg/ml, 24 hrs", "result": "found to decrease"},
      {"measurement": "CD133 mRNA level", "setting": "PC-3 cells; 2.5 and 5 μg/ml, 48 and 72 hrs", "result": "decrease of CD133 mRNA"},
      {"measurement": "protein expression of CD44 (CD133 similar)", "setting": "PC-3 cells; PC-3, 2.5 & 5 μg/ml, 24, 48 and 72 hours", "result": "significantly down regulated"},
      {"measurement": "expression of AKT", "setting": "PC-3 cells; low dose, 0 to about 5 μg/ml", "result": "downregulated"},
      {"measurement": "expression of Oct3/4 and Nestin", "setting": "PC-3 cells; low dose, 0 to about 5 μg/ml", "result": "upregulated"},
      {"measurement": "decrease of spheroid number", "setting": "DU145 prostaspheres; 10 μg/ml", "result": 70, "unit": "%"},
      {"measurement": "decrease of spheroid number", "setting": "DU145 prostaspheres; 20 μg/ml", "result": 76, "unit": "%"}
    ]}
  ]
}
